Data from US20020037495A1, “High throughput screening for inhibitors of fatty acid, ergosterol, sphingolipid, or phospholipid synthesis in fungi” (priority 2000, published 2002).
Converted amounts (≈) assume the structure as drawn. Like-named read-outs stand apart in the source and are kept apart here.

Legend:
[1] = tested on: YGL039w promoter; experiment: YGL039w promoter-lacZ reporter induction; assay type: cell-based, S. cerevisiae
Excerpt: (§1) The OLE1, YOL101c, and YGL039w promoters (along with their respective ATG translation start sites) each were, individually, flised to a lacZ reporter gene (which lacked an ATG translation start site) and introduced in the vector pRS415. The resulting reporter plasmids were then, separately, introduced into a multi-drug resistant yeast strain, thereby producing PL1, P41, and Ml, which are identical to each other except that PL1 carries the […], and M1 carries the YGL039w promoter (Millennium Pharmaceuticals, Inc., MMB#1495, 1497 and 1604, respectively). These yeast strains can be readily used to measure the level of activity of the OLE1, YOL101c, or YGL039w promoter by measuring expression of the lacZ gene. Enzymatic and colorimetric assays for measuring lacZ gene expression are well known in the art and can be used in the invention.
Having determined that antiflingal agents like cerulenin increase the activity of the OLE1 and YOL101 c promoters, yeast strains containing one or both promoters each operably linked to a reporter gene (e.g., lacZ) can be used in a method for determining whether a test compound is an inhibitor of fungal fatty acid synthesis and is thus a candidate antifungal agent. Such a method can be carried out as follows. […]

[2] = tested on: S. cerevisiae mdr mutant; experiment: Fungal growth inhibition (OD600) / MIC testing; assay type: cell-based; details: for MIC: Saccharomyces cerevisiae
Protocol: Assay of Fungal Growth Inhibition: If desired, the ability of each candidate compound to inhibit fungal growth can readily be measured as follows. After incubating the yeast cultures and test compounds for 6 hours in the 96-well plates, as described above, the OD600 of the plates is measured (e.g., using a Wallac/Victor 2 plate reader). The OD600 can be measured before or after the above-described chemiluminescent assay. A test compound that decreases the OD600 of a yeast culture, relative to the OD600 obtained in the absence of the candidate compound, is an antifungal agent.
For the assay, the reporter strains were grown at 30° C. overnight (approximately 14-15 hours) in SC-Leu medium. Typically, the cultures were grown to an OD600 of 0.1, though cells at OD600 of 0.05-0.15 were also appropriate. Plates were then seeded with a 100 μl aliquot of the yeast culture and incubated at 30° C. for approximately 6 hours. To identify antifungal compounds (those affording growth inhibition), the OD600 was measured using a Wallac/Victor 2 plate reader.
The library of 80,000 small molecule compounds was screened for FAS inhibitors at concentration of 100 μM with the Pole1-lacZ reporter strain. Hits were defined as compounds that afforded 2-fold Pole1-lacZ induction. The primary screen yielded 850 hits (1.1% hit rate) as defined above. Among these, 182 were deemed structurally acceptable and subjected to retesting using the same Pole1-IacZ induction assay and an antifungal assay by growth inhibition in MIC testing.

[3] = tested on: S. cerevisiae MMB1493 or C. albicans SC5314 or Y01.06; experiment: 14C-acetate incorporation into fatty acids; assay type: cell-based; details: 10 minutes preincubation, 10 minutes with 14C-acetate, 30° C.
Protocol: Generally, ^14C-acetate incorporation is measured essentially as described in Kuhajda et al., P.N.A.S., 91:6379-6383, 1994. Logarithmically growing cells (4^8 cells of S. cerevisiae MMB1493 or C. albicans SC5314 or Y01.06) were preincubated with 100 μM compounds in DMSO for 10 minutes at 30° C. ^14C-Acetate was added to 20 μCi, mixed and further incubated for 10 minutes at 30° C. Fatty acids were recovered by alkaline ethanolysis (7.5% KOH in 90% ethanol, 1 00ul) at 50° C. for 1 hour, followed by acidification with concentrated HCl (15 μl) and petroleum ether extraction. The radioactivity in the organic layer was counted using a Beckman LS650 multipurpose scintillation counter using Betamax (ICN) scintillation fluid. Cerulenin was used as control at 100 μM; at this concentration 80-90% inhibition was routinely observed in this assay.

[4] = tested on: YOL101c promoter; experiment: YOL101c promoter-lacZ reporter induction (chemiluminescence); assay type: cell-based, S. cerevisiae
Excerpt: as §1

[5] = target: T1, Saccharomyces cerevisiae FAS complex (Saccharomyces cerevisiae, UniProt P07149+P19097); experiment: FAS assay measuring NADPH oxidation; assay type: biochemical
T1 construct: A FAS assay using partially purified S. cerevisiae FAS complex was used to measure NADPH oxidation; tissue Sigma; host or cells: yeast extract (Sigma), FAS complex partially purified after Stoops et al. 1978
T1 sequence (P07149 whole entry): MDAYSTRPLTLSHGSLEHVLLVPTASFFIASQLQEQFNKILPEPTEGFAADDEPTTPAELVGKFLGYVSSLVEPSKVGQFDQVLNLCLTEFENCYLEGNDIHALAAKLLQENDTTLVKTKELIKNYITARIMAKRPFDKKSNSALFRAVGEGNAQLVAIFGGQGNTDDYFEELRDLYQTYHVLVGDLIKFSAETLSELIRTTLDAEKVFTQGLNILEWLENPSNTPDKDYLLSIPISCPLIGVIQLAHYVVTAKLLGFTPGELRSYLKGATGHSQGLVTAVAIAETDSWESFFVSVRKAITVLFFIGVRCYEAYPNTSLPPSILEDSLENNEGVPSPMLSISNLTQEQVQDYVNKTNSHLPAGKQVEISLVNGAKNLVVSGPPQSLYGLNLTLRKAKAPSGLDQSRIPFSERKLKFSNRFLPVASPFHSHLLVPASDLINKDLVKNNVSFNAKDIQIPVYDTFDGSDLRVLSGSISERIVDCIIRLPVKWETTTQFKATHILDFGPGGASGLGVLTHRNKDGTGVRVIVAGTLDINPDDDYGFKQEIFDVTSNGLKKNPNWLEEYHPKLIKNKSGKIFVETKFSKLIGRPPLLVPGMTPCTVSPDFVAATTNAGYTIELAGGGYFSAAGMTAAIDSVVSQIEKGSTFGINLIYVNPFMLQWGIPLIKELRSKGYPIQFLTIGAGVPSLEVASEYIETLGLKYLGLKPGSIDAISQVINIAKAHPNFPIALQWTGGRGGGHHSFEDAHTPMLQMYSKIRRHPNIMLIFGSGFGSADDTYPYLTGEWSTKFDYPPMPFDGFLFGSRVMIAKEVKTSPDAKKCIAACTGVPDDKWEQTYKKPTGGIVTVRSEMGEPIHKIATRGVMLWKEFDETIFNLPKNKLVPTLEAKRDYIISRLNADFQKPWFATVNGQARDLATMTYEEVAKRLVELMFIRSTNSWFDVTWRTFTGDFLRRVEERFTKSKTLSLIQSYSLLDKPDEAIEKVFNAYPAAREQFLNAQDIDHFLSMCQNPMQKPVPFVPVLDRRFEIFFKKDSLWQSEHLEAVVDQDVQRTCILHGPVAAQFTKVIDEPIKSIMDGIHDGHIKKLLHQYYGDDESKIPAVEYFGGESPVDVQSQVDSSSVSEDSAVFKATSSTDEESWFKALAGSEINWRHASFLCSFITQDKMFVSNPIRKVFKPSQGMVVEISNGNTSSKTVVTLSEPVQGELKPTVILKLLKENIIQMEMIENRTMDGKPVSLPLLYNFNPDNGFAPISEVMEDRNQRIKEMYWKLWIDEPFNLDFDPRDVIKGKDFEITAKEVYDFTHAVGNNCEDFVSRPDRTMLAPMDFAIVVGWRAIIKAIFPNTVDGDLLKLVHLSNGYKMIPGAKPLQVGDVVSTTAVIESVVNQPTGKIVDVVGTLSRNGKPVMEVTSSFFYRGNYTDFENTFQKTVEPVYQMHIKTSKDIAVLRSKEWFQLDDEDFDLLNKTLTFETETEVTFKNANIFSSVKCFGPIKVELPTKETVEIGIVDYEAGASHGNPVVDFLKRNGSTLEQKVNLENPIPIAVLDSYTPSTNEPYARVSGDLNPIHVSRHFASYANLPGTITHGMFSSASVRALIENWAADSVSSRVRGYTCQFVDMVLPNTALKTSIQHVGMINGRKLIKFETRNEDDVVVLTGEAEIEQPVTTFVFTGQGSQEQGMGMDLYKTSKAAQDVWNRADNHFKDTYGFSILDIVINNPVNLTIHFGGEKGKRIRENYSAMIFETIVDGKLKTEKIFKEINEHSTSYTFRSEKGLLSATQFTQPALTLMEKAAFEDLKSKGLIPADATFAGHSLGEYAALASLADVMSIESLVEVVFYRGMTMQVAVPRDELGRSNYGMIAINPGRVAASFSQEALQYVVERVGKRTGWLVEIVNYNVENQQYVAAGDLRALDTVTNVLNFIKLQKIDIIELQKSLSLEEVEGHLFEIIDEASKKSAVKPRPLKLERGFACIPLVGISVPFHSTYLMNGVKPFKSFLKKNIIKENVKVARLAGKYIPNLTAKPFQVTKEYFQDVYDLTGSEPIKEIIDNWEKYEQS
T1 sequence (P19097 whole entry): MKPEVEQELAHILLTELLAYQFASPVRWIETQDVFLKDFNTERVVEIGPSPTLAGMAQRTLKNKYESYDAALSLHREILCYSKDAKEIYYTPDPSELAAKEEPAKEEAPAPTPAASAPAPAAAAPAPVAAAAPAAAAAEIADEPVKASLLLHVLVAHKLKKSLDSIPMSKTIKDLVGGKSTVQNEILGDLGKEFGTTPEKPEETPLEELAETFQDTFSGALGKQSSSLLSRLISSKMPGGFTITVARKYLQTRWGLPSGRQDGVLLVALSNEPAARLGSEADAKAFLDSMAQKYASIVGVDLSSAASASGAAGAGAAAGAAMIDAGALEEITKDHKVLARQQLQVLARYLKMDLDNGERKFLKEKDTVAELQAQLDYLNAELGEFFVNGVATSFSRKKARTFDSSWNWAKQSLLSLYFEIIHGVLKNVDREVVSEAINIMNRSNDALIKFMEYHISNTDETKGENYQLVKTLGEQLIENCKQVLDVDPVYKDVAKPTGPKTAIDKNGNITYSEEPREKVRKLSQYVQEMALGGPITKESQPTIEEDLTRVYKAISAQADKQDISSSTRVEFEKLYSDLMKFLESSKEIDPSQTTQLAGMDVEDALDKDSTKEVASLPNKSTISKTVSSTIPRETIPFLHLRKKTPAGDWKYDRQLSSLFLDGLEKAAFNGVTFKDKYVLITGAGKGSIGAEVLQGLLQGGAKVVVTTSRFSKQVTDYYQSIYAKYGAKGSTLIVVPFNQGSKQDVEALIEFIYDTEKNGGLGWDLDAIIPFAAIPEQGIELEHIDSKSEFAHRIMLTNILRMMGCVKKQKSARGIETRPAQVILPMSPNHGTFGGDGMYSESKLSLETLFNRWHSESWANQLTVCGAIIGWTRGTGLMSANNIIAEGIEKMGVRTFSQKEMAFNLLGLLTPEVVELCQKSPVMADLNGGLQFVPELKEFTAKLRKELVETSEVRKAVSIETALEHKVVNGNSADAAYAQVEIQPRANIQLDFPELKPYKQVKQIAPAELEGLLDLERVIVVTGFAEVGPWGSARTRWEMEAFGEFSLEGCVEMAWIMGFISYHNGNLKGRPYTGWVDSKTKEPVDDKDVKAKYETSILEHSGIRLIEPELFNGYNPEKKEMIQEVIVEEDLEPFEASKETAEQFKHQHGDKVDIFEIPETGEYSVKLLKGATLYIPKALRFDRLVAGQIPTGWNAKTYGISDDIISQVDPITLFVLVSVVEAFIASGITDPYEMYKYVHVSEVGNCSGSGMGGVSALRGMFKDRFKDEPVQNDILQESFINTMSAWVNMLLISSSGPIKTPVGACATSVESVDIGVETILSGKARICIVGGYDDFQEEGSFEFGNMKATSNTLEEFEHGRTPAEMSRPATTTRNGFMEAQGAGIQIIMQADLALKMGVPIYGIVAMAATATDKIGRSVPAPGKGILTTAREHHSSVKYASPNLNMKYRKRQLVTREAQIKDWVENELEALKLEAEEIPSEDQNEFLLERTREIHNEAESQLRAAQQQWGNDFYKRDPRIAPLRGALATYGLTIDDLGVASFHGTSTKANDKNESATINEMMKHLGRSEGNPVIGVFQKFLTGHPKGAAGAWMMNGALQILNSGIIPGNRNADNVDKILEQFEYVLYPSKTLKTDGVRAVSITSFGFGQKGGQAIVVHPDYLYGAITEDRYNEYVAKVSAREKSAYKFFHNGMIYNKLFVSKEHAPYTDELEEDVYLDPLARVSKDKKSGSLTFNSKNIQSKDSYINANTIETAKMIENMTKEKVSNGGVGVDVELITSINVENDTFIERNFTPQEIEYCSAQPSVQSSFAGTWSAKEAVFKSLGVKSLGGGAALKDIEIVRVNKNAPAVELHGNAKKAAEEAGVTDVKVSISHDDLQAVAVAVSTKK
Protocol: In another inhibition assay, Saccharomyces cerevisiae FAS complex was obtained from a yeast extract (Sigma) and assayed as described in (Stoops et al., J.B.C., 253:4464-4475, 1978). A crude preparation of Candida albicans FAS can be prepared from a 1-21 YPD overnight culture of SC5314 following essentially the protocol used for S. cerevisiae FAS, with the exception that the last purification step by gel filtration was omitted. The assay cocktail contains: 0.14 mM NADPH, 0.36 mM acetyl-CoA, 0.18 mM malonyl-CoA, 5 mM EDTA, 8 mM DTT, 0.1 M MES pH 6, 100 μM compound in 1% DMSO, and fungal FAS extract. Changes in NADPH oxidation are followed for 1 hour using a BMG fluorimeter set at 340 nm excitation and 460 nm emission. The inhibition of fatty acid synthesis in these assays is expressed as a percent activity compared to the one obtained using 1% DMSO.
A FAS assay using partially purified S. cerevisiae FAS complex was used to measure NADPH oxidation as described herein.

[6] = tested on: OLE1 promoter; experiment: OLE1 promoter-lacZ reporter induction (chemiluminescence); assay type: cell-based, S. cerevisiae
Excerpt: as §1
For example, the test compounds can be tested at concentrations of 25 μM and 100 μM. In a convenient high throughput screening method, the test compounds can be assayed in the wells of a multiple-well (e.g., 96-well) plastic plate (e.g., Packard, Inc. Cat. # 6005181), with each well containing a different test compound. Thus, one plate can contain the test compounds at a concentration of 25 μM, while another plate contains the test compounds at a concentration of 100 μM. Each well also contains up to 2.5% DMSO.
Cerulenin is used as a positive control in wells lacking a test compound. A stock solution of cerulenin (2,3-Epoxy-4-oxo-[…]) can be prepared to a concentration of 10 mg/ml in DMSO and stored at −20° C.
Induction of OLE1 Promoter Activity: The yeast glycerol stocks described above are used to prepare fresh yeast cultures that are used in the screening assays. The cell suspension, if frozen, is thawed at 37° C., and 33 μl of the stock is added to 12 ml of SC-Leu medium. The culture then is incubated in a shaking Erlemneyer flask at 30° C. overnight (approximately 14-15 hours). The OD600 of the culture then is measured, with a culture having an OD600 of 0.05-0.15 being suitable for use. […] 1; if necessary, the culture can be diluted with SC-Leu medium to obtain the desired OD600. A 100 μI aliquot of the yeast culture then is added to each well of the 96-well plate containing a test compound, and the cultures are incubated at 30° C. for approximately 6 hours.
To assay for an increase in the activity of the OLE1 promoter, an increase in the level of the lacZ reporter gene expression is measured. A 100 μl aliquot of 2 X substrate buffer is added to each well of the plate. To produce a 100 ml sample of 2 X substrate buffer, the following components are mixed within 1 hour of use, and kept at room temperature: 4.0 ml of GALACTON-STAR™ substrate ((3-chloro-5-(4-methoxyspiro { 1,2-dioxetane-3,2′-(4′chloro)-tricyclo-[3.3.1.1 ^3,7] decan} -4-yl)phenyl-B-D-galactopyranoside); Tropix, Inc., Cat. #GS100), 20.0 ml of SAPHIRE II™ luminescence signal enhancer (Tropix, Inc., Cat. #LAX250), and 76 ml of Lysis Buffer (0.026% Na Deoxycholic acid, 0.053% CTAB, 265 mM NaCl, 395 mM HEPES, pH 7.5). The plates are incubated at room temperature for 45 minutes, before vortexing them for 30 seconds at a low to moderate speed.
A chemiluminescent signal is produced by reaction of β-galactosidase with the substrate. Chemiluminescence can be measured using a TopCount-HTS, with the data mode set to measure […], and with a count time of 0.1 minute. Generally, chemiluminescence should be measured before significant signal decay occurs (i.e., within approximately 90 minutes of initiating the reaction).
Screening plates containing 80,000 individual small molecule compounds (comprising a diversity file) were prepared at concentrations of 100 μM in 96-well plastic clear-bottom plates (Packard, Inc. Cat. # 6005181).

[7] = tested on: OLE1, YOL101c, and YGL039w genes; experiment: Transcriptional profiling (TxP) of yeast treated with FAS inhibitor; assay type: cell-based; details: 0.1, 0.2 and 0.3 μM; 3 and 5 hour time points
Protocol: Logarithmically growing hypersensitive yeast MMB 1489 (Δpdr5 Δsnq2) cells were treated with cerulenin at 0.5 X, 1 X, and 1.5 X the MIC value (0.1, 0.2 and 0.3 μM) and cells were harvested at 1, 3 and 5 hour time points following drug treatment. Total RNA was obtained from cell pellets treated with 0.1, 0.2, and 0.3 μM cerulenin. […] Following hybridization, the data was normalized, filtered and analyzed.

## C/C=C/C/C=C/CCC(=O)[C@H]1O[C@H]1C(N)=O [Cerulenin, 2,3-Epoxy-4-oxo-7,1-dodecadienamide]
[1]
  lacZ gene expression, YGL039w promoter strain: increase in lacZ gene expression
[2]; 0.2 μg/ml
  inhibition of fungal growth: no detectable inhibition of fungal growth
[2]; 0.9 μM
  inhibition of fungal growth: no detectable inhibition of fungal growth
[2]; 2.0 μg/ml
  inhibition of fungal growth: maximum inhibition of fungal growth
[2]; 9 μM
  inhibition of fungal growth: maximum inhibition of fungal growth
[2]
  MIC: 0.2 to 0.9 µM (≈ 0.0447 to 0.201 µg/mL)
[2]; read-out: MIC value
  MIC: 0.2 µM (≈ 0.0447 µg/mL)
[3]
  inhibition at 100 µM: 80 to 90%
[4]
  lacZ gene expression, YOL101c promoter strain: increase in lacZ gene expression
[4]; 9 μM, YOL101c promoter strain
  increase in chemiluminescence: 100-300 fold
[5]; 100 μM, within the first 30 minutes, read-out: inhibition of fatty acid synthesis (NADPH oxidation)
  inhibition at 100 µM: 80 to 90%
[5]; read-out: FAS-NADPH ox % Inhibition @ 100 μM
  inhibition at 100 µM: 81%
[5]; read-out: FAS-NADPH ox IC50
  IC50: 0.7 to 1.3 µM
[6]
  lacZ gene expression, OLE1 promoter strain: increase in lacZ gene expression
[6]; 0.2 μg/ml
  induction of promoter activity: partial induction of promoter activity
[6]; 0.9 μM
  induction of promoter activity: 50%
[6]; 2.0 μg/ml
  increase in the level of chemiluminescence relative to uninduced control: 100 fold
  induction of promoter activity: maximum induction of promoter activity
[6]; 9 μM
  induction of promoter activity: maximum induction of promoter activity
[6]; 9 μM, OLE1 promoter strain
  increase in chemiluminescence: 100-300 fold
[6]; 100 μM, Pole1-lacZ reporter strain
  OLE1 Fold-induction (100 μM): 479 Fold
[7]
  gene induction of OLE1, YOL101c and YGL039w (mRNA): most highly induced genes

## Clc1ccc(COC(Cn2ccnc2)c2ccc(Cl)cc2Cl)c(Cl)c1 (stereo not drawn) [miconoazole]
[6]
  induction of the OLE1 reporter: induce this reporter

## CCCCCCC(=O)CCCCCC/C=C/C[C@@H](O)[C@H](O)[C@@](N)(CO)C(=O)O [myriocin]
[6]
  induction of the OLE1 reporter: induce this reporter
